Non-standard residues stand in square brackets, D forms with d. No end group written: not given here. pT = C[C@@H](OP(=O)(O)O)[C@H](N)C(=O)O
Key:
PP1γ [1] = molecular target: T1, PP1γ (Homo sapiens, UniProt P36873); assay: MRBLE:Pep concentration-dependent PP1 binding to bead-bound RVxF peptides; conditions: bead-bound peptide, PP1 0-2,000 nM with anti-PP1 and Alexa 647 secondary antibody, 24 h at 4°C, 50 mM Tris pH 7.5, 150 mM NaCl, 0.1% TWEEN 20; median and SD across experimental replicates (n = 3); read-out: Kd, MRBLE-pep (Langmuir isotherm fit)
T1 construct: His; made in house; host or cells: E. coli BL21(DE3)
Protocol: After incubating bead‐bound peptide libraries with PP1, an unlabeled anti‐PP1 primary antibody, and an Alexa 647‐labeled secondary antibody, we washed beads and imaged again in both lanthanide and fluorescence channels to identify peptides and quantify the amount of PP1 bound (Fig 5A). Repeating these experiments over eight different PP1 concentrations enabled acquisition of concentration‐dependent binding curves; fitting the mean intensity of all beads with a given code at different concentrations of PP1γ and fitting to a Langmuir isotherm made it possible to quantify absolute affinities (Figs 5B and Appendix Fig S11).
PP1 concentration‐dependent binding to peptides on MRBLEs was done as described previously (Hein et al, [2021a]). In short, ~ 700 beads per code were mixed in and blocked in 700 μL PBS‐T with 5% BSA. PP1 (2 μM) was preincubated in binding buffer (50 mM Tris pH = 7.5, 150 mM NaCl, and 0.1% TWEEN 20) with 1 μM primary (a‐PPP1CC rabbit polyclonal, Bethyl A300‐906A) and 1 μM goat anti‐rabbit IgG Alexa Fluor 647 (Thermo Fischer, A‐21245). […]
We then computed the mean y max value across all of these peptides and refit concentration‐dependent binding curves for all peptide sequences to the Langmuir isotherm equation using this experimentally determined y max value for all peptide sequences and fitting only the K d term. […]

PP1γ [2] = molecular target: T1, PP1γ; assay: ITC of RVxF model peptides with PP1γ; format: binding; conditions: peptide ~450 μM titrated into PP1γ ~35 μM, 25°C, 50 mM sodium phosphate, 150 mM NaCl, 0.5 mM TCEP, pH 7.5, single-site model
Protocol: Prior to ITC experiments, both the protein and the peptides were extensively dialyzed against 50 mM sodium phosphate, 150 mM NaCl, and 0.5 mM TCEP, pH 7.5. All ITC experiments were performed on an Auto‐iTC200 instrument (Microcal, Malvern Instruments Ltd.) at 25°C. Both peptide and PP1γ concentrations were determined using a spectrometer by measuring the absorbance at 280 nm and applying values for the extinction coefficients computed from the corresponding sequences by the ProtParam program (http://web.expasy.org/protparam/). The peptides at approximately 450 μM concentration were loaded into the syringe and titrated into the calorimetric cell containing the PP1γ at ~ 35 μM. The reference cell was filled with distilled water. In all assays, the titration sequence consisted of a single 0.4 μl injection followed by 19 injections, 2 μl each, with 150 s spacing between injections to ensure that the thermal power returns to the baseline before the next injection. The stirring speed was 750 rpm. Control experiments with the peptides injected in the sample cell filled with buffer were carried out under the same experimental conditions. […] The heats per injection normalized per mole of injectant versus the molar ratio [peptide]/[PP1γ] were fitted to a single‐site model. Data were analyzed with MicroCal PEAQ‐ITC (version 1.1.0.1262) analysis software (Malvern Instruments Ltd.).

PP2A‐B55α = assay: Phosphate release assay (PiColorLock / malachite green) with PP2A-B55; format: biochemical, human; conditions: B55 WT, peptide 120 μM, 80 ng phosphatase, 20 min 30°C
Protocol: PP2A‐B55α holoenzymes were purified from HeLa cells stably expressing FLAG‐tagged B55α as previously described (Kruse et al, [2020]).
In vitro phosphatase assays were performed with E. coli–expressed PP1γ or PP2A‐B55α purified from HeLa cell (ATCC, RRID CVCL_0030) extracts as described previously. […] The PiColorLock inorganic phosphate detection kit (abcam) was used to detect the amount of phosphate released from the phosphorylated peptides.

Venus-B55 = assay: Affinity purification (pulldown) of YFP/Venus-B55 from mitotic cells, label-free LC-MS/MS; format: binding, human
From the text: (§1) We defined interactomes of PP1γ and B55α during mitosis using affinity purification of YFP‐tagged subunits and also proximity‐dependent ligation using miniTurbo to capture interactions at mitotic exit (Appendix Fig S8) (Branon et al, [2018]; Sears et al, [2019]). […] These identified proteins can constitute both regulators and substrates. […] To understand how these protein interactions might shape dephosphorylation, we first aimed at generating interactome networks and overlay regulated sites. We integrated interactomes and information from the STRING database (Szklarczyk et al, [2023]) with our regulated phosphorylation sites to generate a network of complexes and dephosphorylation sites (Fig 4C and Appendix Fig S9A). For PP1, we also integrated information on known and predicted RVxF motifs (Smith et al, [2019]). […] As an example, CASC5 (KNL1) could scaffold PP1 dephosphorylation of CENPC S261, a phosphorylation site in a nuclear localization sequence. In agreement with previous work, PP2A‐B55 regulated dephosphorylation of several nucleoporins at mitotic exit consistent with Nup153 and TPR being present in the interactomes (Cundell et al, [2016]).
(§2) PP1 and B55 cDNAs were cloned into modified versions of pcDNA5/FRT/TO (Invitrogen) to make N‐terminal fusions to YFP, BioID, or TurboID. Stable cell lines were generated into HeLa/FRT/TRex cells (kind gift from S. Taylor), and for YFP affinity, purification cells were synchronized with thymidine and released into nocodazole‐containing media to arrest them in mitosis. Cells were resuspended in lysis buffer (50 mM NaCl, 50 mM Tris 7,4, 1 mM EDTA, 0.1% NP40, 1 mM DTT, and protease inhibitor cocktail), and following sonication, the lysate was clarified by centrifugation. Cell lysate was incubated with GFP‐Trap beads (Chromotek) for 1 h, washed 3 × 1 ml with lysis buffer, and resuspended in SDS–PAGE loading buffer.
(§3) The Q‐Exactive Plus was set to perform an Orbitrap MS1 scan (R = 70 K; AGC target = 1e6) from 350 to 1,500 m/z, followed by HCD MS2 spectra on the 10 most abundant precursor ions detected by Orbitrap scanning (R = 17.5 K; AGC target = 1e5; max ion time = 50 ms) before repeating the cycle. Precursor ions were isolated for HCD by quadrupole isolation at width = 1 m/z and HCD fragmentation at 26 normalized collision energy (NCE). Charge state 2, 3, and 4 ions were selected for MS2. Precursor ions were added to a dynamic exclusion list ± 20 ppm for 15 s. […] Static modifications included carbamidomethylcysteine and variable modifications included oxidized methionine. […] Missing values were imputed from a normal distribution in Perseus to enable statistical analysis and visualization by volcano plot (Tyanova et al, [2016]). Statistical analysis was carried out in Perseus by two‐tailed Student's t‐test.

Venus-PP1 = assay: Affinity purification (pulldown) of YFP/Venus-PP1 from mitotic cells, label-free LC-MS/MS; format: binding, human
From the text: as §1, §2, §3

T1 sequence (P36873 whole entry): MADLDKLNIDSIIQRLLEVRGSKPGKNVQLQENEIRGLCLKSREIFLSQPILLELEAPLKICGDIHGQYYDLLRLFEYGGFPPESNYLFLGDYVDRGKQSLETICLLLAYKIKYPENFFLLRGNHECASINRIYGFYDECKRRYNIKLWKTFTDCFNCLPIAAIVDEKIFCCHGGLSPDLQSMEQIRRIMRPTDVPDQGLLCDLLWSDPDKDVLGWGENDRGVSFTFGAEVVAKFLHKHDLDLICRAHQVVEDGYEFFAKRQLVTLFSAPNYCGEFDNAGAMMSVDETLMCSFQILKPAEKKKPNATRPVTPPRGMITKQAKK

AKNSRVTFSEDDEII
Kd (PP1γ [1]): 3400 ± 700 nM

AKNSRVTFSEDDEIW
Kd (PP1γ [2]): 190 ± 10 nM

INCENP WT: phosphorylated INCENP 53-67 peptide (T59), wild type (PELMPK[pT]PSQKNRRK; UniProt Q9NQS7 53-67, looked up, fragment)
phosphate released from peptide by PP2A-B55 (in vitro dephosphorylation assay, Fig 3B) (PP2A‐B55α; 50 mM Tris pH 7.4, 1 mM MnCl2, 150 mM NaCl, technical repeat 1): 0,806
phosphate released from peptide by PP2A-B55 (in vitro dephosphorylation assay, Fig 3B) (PP2A‐B55α; technical repeat 2): 0,858
phosphate released from peptide by PP2A-B55 (in vitro dephosphorylation assay, Fig 3B) (PP2A‐B55α; technical repeat 3): 0,812

TOP2A_HUMAN
log2 ratio [Venus-B55/Venus] (Venus-B55; enrichment in Venus-B55 pulldown over Venus control, from 3 replicates each): 1.41
log2 IBAQ [Venus-B55 1] (Venus-B55; pulldown of Venus-B55 from mitotic cells, label-free LC-MS/MS, log2 IBAQ of co-purified protein, replicate 1): 16.03
log2 IBAQ [Venus-B55 2] (Venus-B55; pulldown of Venus-B55 from mitotic cells, label-free LC-MS/MS, log2 IBAQ of co-purified protein, replicate 2): 16.59
log2 IBAQ [Venus-B55 3] (Venus-B55; pulldown of Venus-B55 from mitotic cells, label-free LC-MS/MS, log2 IBAQ of co-purified protein, replicate 3): 15.37
B55 or PP1? (Venus-PP1; assignment of the co-purified protein as interactor of Venus-B55 and/or Venus-PP1 (both pulldowns)): B55/PP1
log2 ratio [Venus-PP1/Venus] (Venus-PP1; enrichment in Venus-PP1 pulldown over Venus control, from 3 replicates each): 4.66
log2 IBAQ [Venus-PP1 1] (Venus-PP1; pulldown of Venus-PP1 from mitotic cells, label-free LC-MS/MS, log2 IBAQ of co-purified protein, replicate 1): 19.15
log2 IBAQ [Venus-PP1 2] (Venus-PP1; pulldown of Venus-PP1 from mitotic cells, label-free LC-MS/MS, log2 IBAQ of co-purified protein, replicate 2): 19.33
log2 IBAQ [Venus-PP1 3] (Venus-PP1; pulldown of Venus-PP1 from mitotic cells, label-free LC-MS/MS, log2 IBAQ of co-purified protein, replicate 3): 21.02
